Data published in US20100021895A1, “Vectors for Inducing Homozygous Mutations and Methods of Using Same” (priority 2006, published 2010).

System: HSV thymidine kinase (TK) gene in cells containing an entrapment mutation in the Hesx1 gene
Test: TK gene loss, selection in gancyclovir
Type: cell-based, mouse
Settings: Table 2
Method: Two types of experiments were performed to assess whether frequencies of LOH were transiently or stably elevated following carcinogen exposure. First, cells were treated with MNU and HU as before and the percentages of cells having undergone LOH were determined by selection in 2.0 mg/ml G418 at various times thereafter. Over 90% of the total LOH was induced within 24 hours of MNU and HU exposure, and only minimal additional LOH occurred subsequently (FIG. 14). Second, it was asked whether LOH frequencies at a second locus were elevated in cells having undergone LOH at the entrapment locus. For this, a Herpes Simplex Virus thymidine kinase (TK) gene was introduced into cells containing an entrapment allele of the Hesx1 gene and frequencies of TK gene loss were measured by selection in gangcyclovir. These studies utilized the cell line containing the TK gene (C8TK1) and derivatives of C8TK1 that had undergone LOH at the entrapment locus either spontaneously (C8TK1sN) or after treatment with either MNU (C8TKmN) or HU (C8TK1hN). […] Moreover, the stability of the TK gene following carcinogen treatment was largely unaffected by prior selection for LOH involving the entrapment locus. Similar results were also obtained with a second TK-containing line (C8TK2, Table 4). Together these experiments indicate that carcinogen-induced LOH results from an acute response rather than from a stably altered cellular phenotype.
Serially diluted cells were plated onto 150 mm plates containing drug-free media and allowed to attach overnight. Unattached cells were removed and media containing the indicated concentrations of methyl-nitrosourea, hydroxyurea, ethidium bromide, doxorubicin, methotrexate, diepoxybutane, or mitomycin C was put onto cells for 4 hours (or cells were exposed to ultraviolet light in the absence of media and allowed to recover in drug-free media for 4 hours). Cells were then rinsed twice with drug-free media and selection media containing 0.0, 0.3, or 2.0 mg/ml G418 was put onto cells. After 12 days of selection, the number of colonies surviving was counted and the frequency of colony formation was determined by dividing the number of colonies obtained from 2.0 mg/ml G418 selection to that obtained from parallel experiments with 0.3 mg/ml G418 selection. TK gene loss was assessed following selection in media containing 2 μg/ml gancyclovir.
Table 2. […] The HSV thymidine kinase (TK) gene was introduced into cells containing an entrapment mutation in the Hesx1 gene. A TK expressing (TK^+) clone (C8TK1) was used to select for cells that had undergone LOH at the entrapment locus (EL) spontaneously (C8TK1sN) or following treatment with HU (C8TK1hN) or MNU (C8TK1mN). The frequencies of TK gene loss were compared in cells with and without prior selection for LOH at the entrapment locus and the differences were expressed as the indicated ratios.
Table 4. Carcinogen-induced LOH does generate genetically unstable cells. The HSV thymidine kinase (TK) gene was introduced into cells containing an entrapment mutation in the Hesx1 gene. A TK expressing (TK+) clone (C8TK2) was used to select for cells that had undergone LOH at the entrapment locus (EL) spontaneously (C8TK2sN) or following treatment with HU (C8TK2hN) or MNU (C8TK2mN). The frequencies of spontaneous TK gene loss (Treatment=none) or TK gene loss following treatment with HU or MNU were compared in cells with (EL^−/−) and without prior selection for LOH (EL^+/+) at the entrapment locus and the differences were expressed as the indicated ratios.

SMILES	Ratio of Freq. TK loss (C8TK1sN and C8TK1hN, Treatment HU)	Freq. TK loss (clone C8TK1hN (EL LOH induced by HU), Treatment HU)	Freq. TK loss (clone C8TK1hN (EL LOH induced by HU, TK+ EL−/−), Treatment none)	Freq. TK loss (clone C8TK1sN (Spont. EL LOH), Treatment HU)	Freq. TK loss (clone C8TK1mN (EL LOH induced by MNU), Treatment MNU)	Freq. TK loss (clone C8TK1mN (EL LOH induced by MNU, TK+ EL−/−), Treatment none)	Freq. TK loss (clone C8TK1sN (Spont. EL LOH), Treatment MNU)
NC(=O)NO [HU, hydroxyurea]	1.7	3.9 × 10^−4	8.4 × 10^−5	2.3 × 10^−4	–	–	–
CN(N=O)C(N)=O [MNU, methyl-nitrosourea]	–	–	–	–	4.7 × 10^−4	1.4 × 10^−5	2.6 × 10^−4
